Assay results taken from patent US20120302629A1, “BIOMARKERS FOR GOSSYPOL CHEMOTHERAPY AND METHODS OF TREATING DISEASE” (THE REGENTS OF THE UNIVERSITY OF MICHIGAN, priority 2009, published 2012).

Key:
[1] = system: Bcl-2 family proteins in 2LMP cells; experiment: Western blot of whole cell lysates; format: cell-based, human
Method: (§1) Western blot assay: Proteins were harvested in RIPA buffer, then electrophoresed on 4-20% gradient SDS-PAGE gels (Invitrogen, Grand Island, N.Y.) and transferred to PVDF membranes. The membranes were blocked in 5% milk and then incubated with specific primary antibody, followed by secondary antibody. The signals were visualized with the chemiluminescent HRP antibody detection reagent (Deville Scientific, Metuchen, N.J.).

[2] = system: Bcl-2 family proteins in PC-3 cells; experiment: Western blot of whole cell lysates; format: cell-based, human; details: 10 μM
Method: as §1

[3] = system: caspase-9 and -3/-7 in 2LMP cells; experiment: Fluorometric caspase activity assays; format: cell-based, human; details: 5 μM
Method: Fluorometric caspase activity assays: Cells were harvested in cell lysis buffer provided by Biovision research products (Mountain View, Calif.). 20 μg of protein was evaluated for caspase activity by incubating with fluorogenic caspase-3 or -9 substrate (EMD Biosciences) in reaction buffer (Biovision). Detection of cleavage of substrate Ac-DEVD-AFC (preferentially cleaved by caspase-3) and Ac-LEHD-AFC (preferentially cleaved by caspase-9) were measured at a λexc=400 nm and λem=505 nm using a Telcan Ultra plate reader (Männedorf, Switzerland). Experiments were performed in triplicate.

[4] = system: 5 breast (MDA-MB-231, MDA-MB-436, MDA-MB-468, BT-549 and MCF-7) and 3 prostate (22Rv1, DU145 and LNCaP) cancer cell lines; experiment: Western blot in 8 additional cancer cell lines; format: cell-based, human; details: treated for 24 h, all 8 cancer cell lines
Method: as §1

DU145 cells = experiment: Cell death (trypan blue) after siRNA knock-down; format: cell-based, human
Method: (§2) Cell Growth, Cell Death, and Apoptosis: Cell growth inhibition by (−)-gossypol was determined in a water-soluble tetrazolium (WST)-based assay, as described previously (Shangary et al., Proc. Natl. Acad. Sci. USA 105:3933 (2008)). Cell viability was determined by trypan blue due exclusion as described (Shangary et al., Proc. Natl. Acad. Sci. USA 105:3933 (2008)). Experiments were done in triplicate. To examine apoptosis, cells were stained with Annexin V and PI and analyzed by flow cytometery using an Annexin V-FITC staining kit (Roche Applied Science, Indianapolis, Ind.) according to manufacturer's instructions. Briefly, cells were treated and collected by centrifugation, washed with PBS once and then stained with annexinV-FITC and PI for 15 min at room temperature in the dark. Stained cells were analyzed in a FACS caliber flow cytometer. AnnexinV positive cells are considered as apoptotic cells.
(§3) RNA interference: Gene specific double-stranded RNA oligonucleotide targeting Noxa, Puma, c-Myc, HIF1-α, E2F1#2, Bax, Bak, were purchased from Dharmacon RNAi technologies as Sigenome on-targetplus SMARTpool duplex (Lafayette, Colo.). SiRNA of E2F#1 was purchased from Santa Cruz. As a negative control, siRNA against GFP target sequence 5′-[…]-3′ was employed (Qiagen, Valencia, Calif.). […]

2LMP cells [5] = experiment: Apoptosis (Annexin V/PI flow cytometry) after siRNA knock-down; format: cell-based, human
Method: as §2
(§4) RNA interference: Gene specific double-stranded RNA oligonucleotide targeting Noxa, Puma, c-Myc, HIF1-α, E2F1#2, Bax, Bak, were purchased from Dharmacon RNAi technologies as Sigenome on-targetplus SMARTpool duplex (Lafayette, Colo.). SiRNA of E2F#1 was purchased from Santa Cruz. As a negative control, siRNA against GFP target sequence 5′-[…]-3′ was employed (Qiagen, Valencia, Calif.). Transfections were performed using Lipofectamine RNAiMAX, according to manufacturer's instructions (Invitrogen, Carlsbad, Calif.). (−)-Gossypol was added 24 h after transfection and cells were harvested after 18 h treatment of (−)-gossypol. Three independent knock down experiments were performed for each gene.

PC-3 cells [6] = experiment: as above; format: cell-based, human
Method: as §2, §4

Bcl-2 = Bcl-2 (Homo sapiens, UniProt P10415); details: Wang et al., J. Med. Chem. 49:6139 (2006); cited from earlier work
Bcl-xL = Bcl-xL (Homo sapiens, UniProt Q07817); details: Wang et al., J. Med. Chem. 49:6139 (2006); cited from earlier work
2LMP cells [7] = experiment: Cell death by trypan blue dye exclusion; format: cell-based, human; details: for cell death: 48 h
Method: as §2

PC-3 cells [8] = experiment: Cell death by trypan blue dye exclusion; format: cell-based, human
Method: as §2

2LMP cells [9] = experiment: WST cell growth assay; format: cell-based, human; details: 4 days
Method: as §2

PC-3 cells [10] = experiment: WST cell growth assay; format: cell-based, human; details: 4 days
Method: as §2

MDA-MB-436 cells = experiment: WST cell growth assay; format: cell-based, human; details: (−)-gossypol 0.5 and 1 μM, 4 days
Method: as §2

Mcl-1 = Mcl-1 (Homo sapiens, UniProt Q07820); details: Wang et al., J. Med. Chem. 49:6139 (2006); cited from earlier work
FF (fibroblast) cells = experiment: Cell death (trypan blue) and western blot in normal cells; format: cell-based, human
Method: as §2, §1

HMEC cells = experiment: as above; format: cell-based, human
Method: as §2, §1

MCF-12F cells = experiment: as above; format: cell-based, human
Method: as §2, §1

RKO colon cancer cells = experiment: Cell death after c-Myc knock-down; format: cell-based; details: p53 wild-type, c-Myc siRNA
Method: as §2, §3

MEF Bax/Bak KO cells = experiment: Apoptosis (Annexin V/PI flow cytometry) in MEF cells; format: cell-based; details: for cells to undergo apoptosis: 24 h
Method: as §2

wild-type MEF cells = experiment: as above; format: cell-based; details: 24 h
Method: as §2

[11] = system: long form of Mcl-1 mRNA in 2LMP cells; experiment: Taqman real-time PCR; format: cell-based, human; details: 10 μm, 5-10 h time-points
Method: (§5) Real-Time PCR: Total RNA was extracted by RNA miniprep kit (Sigma) from cells treated with or without of (−)-gossypol. cDNA was synthesized from 2 μg of RNA using cDNA reverse transcription kits (Applied Biosystems). Next, Taqman gene expression assays were performed using Noxa (Hs00560402_ml), Puma (Hs00248075_ml), Mcl-1 (Hs00172036_ml) gene specific primers/probe sets for real-time PCR in a ABI7900HT PCR machine. GAPDH (Hs99999905_ml) was used for normalization. Relative quantitation of mRNA was calculated by comparative cycle threshold (Ct) method.

Noxa mRNA in 2LMP cells = experiment: Taqman real-time PCR; format: cell-based, human; details: 10 μm
Method: as §5

Puma mRNA in 2LMP cells = experiment: Taqman real-time PCR; format: cell-based, human; details: 10 μm
Method: as §5

Chain of Bcl-2 (P10415 whole entry): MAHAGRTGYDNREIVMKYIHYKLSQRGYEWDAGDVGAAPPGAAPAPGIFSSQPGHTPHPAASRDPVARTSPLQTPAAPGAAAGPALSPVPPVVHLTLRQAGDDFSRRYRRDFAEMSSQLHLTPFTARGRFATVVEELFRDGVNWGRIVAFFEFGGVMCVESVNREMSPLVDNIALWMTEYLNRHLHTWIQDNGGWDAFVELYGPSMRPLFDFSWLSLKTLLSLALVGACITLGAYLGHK
Chain of Bcl-xL (Q07817 whole entry): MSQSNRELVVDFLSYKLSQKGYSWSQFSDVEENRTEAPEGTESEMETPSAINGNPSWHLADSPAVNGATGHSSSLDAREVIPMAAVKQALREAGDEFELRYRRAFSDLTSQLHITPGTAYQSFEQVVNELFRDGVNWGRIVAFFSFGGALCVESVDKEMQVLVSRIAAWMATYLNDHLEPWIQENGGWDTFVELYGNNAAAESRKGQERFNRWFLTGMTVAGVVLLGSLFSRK
Chain of Mcl-1 (Q07820 whole entry): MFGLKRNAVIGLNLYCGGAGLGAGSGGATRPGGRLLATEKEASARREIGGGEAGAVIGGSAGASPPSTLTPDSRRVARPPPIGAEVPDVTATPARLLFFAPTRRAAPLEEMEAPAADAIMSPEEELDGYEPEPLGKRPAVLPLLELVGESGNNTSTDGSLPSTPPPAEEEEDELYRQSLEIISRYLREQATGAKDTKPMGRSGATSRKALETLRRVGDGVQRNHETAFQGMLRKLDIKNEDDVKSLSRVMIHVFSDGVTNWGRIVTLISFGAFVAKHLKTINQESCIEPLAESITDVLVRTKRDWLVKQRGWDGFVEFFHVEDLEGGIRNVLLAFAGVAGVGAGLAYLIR

## Cc1cc2c(C(C)C)c(O)c(O)c(C=O)c2c(O)c1-c1c(C)cc2c(C(C)C)c(O)c(O)c(C=O)c2c1O [(−)-gossypol]
[1]; 10 μM
  earliest time of clear Noxa protein induction: 4 h
  earliest time of dramatic induction of the short forms of Mcl-1: 8 h
  time of Puma protein upregulation: 8 h
[1]; 10 μM, 12 h time-point
  Bcl-xL protein level: significant down-regulation
[1]; 24-h treatment (FIG. 8A)
  lowest concentration with clear induction of Noxa and Puma: 2.5 µM
[2]
  earliest time of clear Noxa protein induction: 4 h
  earliest time of dramatic induction of the short forms of Mcl-1: 8 h
  time of Puma protein upregulation: 8 h
[3]; 24 h treatment
  activity of caspase-9 and -3/-7 induced: 7 fold
[3]; 48 h treatment
  activity of caspase-9 and -3/-7 induced: > 60 fold
[4]
  lowest concentration with significant upregulation of Noxa: 2.5 µM
DU145 cells; 18 h, Bax and Bak siRNA
  effect of double knockdown of Bax/Bak on apoptosis induction: modestly reduced
DU145 cells; p53-mutated, c-Myc siRNA
  cell death induction upon c-Myc knock-down: effective blockage
2LMP cells [5]; 10 μM, 18 h, Bax and Bak siRNA
  apoptosis induction blocked by double knockdown of Bax/Bak: approximately 70%
2LMP cells [5]; 10 μM, c-Myc siRNA
  cell death induction blocked by knock-down of c-Myc: > 70%
2LMP cells [5]; 18 h, Puma siRNA
  apoptosis induction decreased by knock-down of Puma: 30-50%
2LMP cells [5]; all the concentrations tested, 18 h, Noxa siRNA
  apoptosis induction reduced by knock-down of Noxa: > 50%
PC-3 cells [6]; 10 μM, c-Myc siRNA
  cell death induction blocked by knock-down of c-Myc: > 70%
PC-3 cells [6]; 18 h, Bax and Bak siRNA
  effect of double knockdown of Bax/Bak on apoptosis induction: no effect
Bcl-2
  binding affinity: low to sub-micromolar
Bcl-xL
  binding affinity: low to sub-micromolar
2LMP cells [7]; 2.5 μM, 48 h treatment
  cells killed: 14%
2LMP cells [7]; 10 μM, 24 hour-treatment (FIG. 1)
  cells to undergo cell death: 30-40%
2LMP cells [7]; 10 μM, 24 h time-point
  cells lost their viability: approximately 40%
2LMP cells [7]; 10 μM, 36 h time-point
  cells lost their viability: approximately 70%
2LMP cells [7]; 10 μM, 48 h time-point
  cells lost their viability: ~100%
2LMP cells [7]; 10 μM, time course
  cell death at time-points earlier than 12 h: no significant cell death
PC-3 cells [8]; 10 μM, 24 hour-treatment
  cells to undergo cell death: 30-40%
PC-3 cells [8]; 10 μM, 24 h time-point
  cells lost their viability: approximately 40%
PC-3 cells [8]; 10 μM, 36 h time-point
  cells lost their viability: approximately 70%
PC-3 cells [8]; 10 μM, 48 h time-point
  cells lost their viability: ~100%
PC-3 cells [8]; 10 μM, time course
  cell death at time-points earlier than 12 h: no significant cell death
2LMP cells [9]; (−)-gossypol 0.5 and 1 μM
  sensitization to ABT-737: effectively sensitize
PC-3 cells [10]; (−)-gossypol 0.5 and 1 μM
  sensitization to ABT-737: effectively sensitize
MDA-MB-436 cells
  sensitization to ABT-737: effectively sensitize
Mcl-1
  binding affinity: low to sub-micromolar
FF (fibroblast) cells; 24-48 h treatment at 10 μM
  Noxa induction: not induced
FF (fibroblast) cells; compared to 2LMP cells
  cell death: minimal cell death
HMEC cells; 24-48 h treatment at 10 μM
  Noxa induction: not induced
HMEC cells; compared to 2LMP cells
  cell death: minimal cell death
MCF-12F cells; 24-48 h treatment at 10 μM
  Noxa induction: not induced
MCF-12F cells; compared to 2LMP cells
  cell death: minimal cell death
RKO colon cancer cells
  cell death induction upon c-Myc knock-down: effective blockage
MEF Bax/Bak KO cells; 5 μM
  cells to undergo apoptosis: 11%
MEF Bax/Bak KO cells; 10 μM
  cells to undergo apoptosis: 13%
MEF Bax/Bak KO cells; 20 μM, versus wild-type MEF
  cell death reduced in the Bax/Bak double knock-out: 25%
wild-type MEF cells; 5 μM
  cells to undergo apoptosis: 29%
wild-type MEF cells; 10 μM
  cells to undergo apoptosis: 33%
[11]
  increase of the long form of Mcl-1 mRNA: less than 3 fold
Noxa mRNA in 2LMP cells; 2.5 h time-point
  mRNA levels of Noxa increased: 2.3 fold
Noxa mRNA in 2LMP cells; 5 h time-point
  mRNA levels of Noxa increased: 9 fold
Noxa mRNA in 2LMP cells; 7.5 h time-point
  mRNA levels of Noxa increased: 24 fold
Noxa mRNA in 2LMP cells; 10 h time-point
  mRNA levels of Noxa increased: 37 fold
Puma mRNA in 2LMP cells; 2.5 h time-point
  Puma mRNA increased: 1.4 fold
Puma mRNA in 2LMP cells; 5 h time-point
  Puma mRNA increased: 5.4 fold
Puma mRNA in 2LMP cells; 7.5 h time-point
  Puma mRNA increased: 5 fold
Puma mRNA in 2LMP cells; 10 h time-point
  Puma mRNA increased: 4.3 fold

## CN(C)CC[C@H](CSc1ccccc1)Nc1ccc(S(=O)(=O)NC(=O)c2ccc(N3CCN(Cc4ccccc4-c4ccc(Cl)cc4)CC3)cc2)cc1[N+](=O)[O-] [ABT-737, reference compound]
2LMP cells [7]; 1 μM
  cell death: no effect
2LMP cells [7]; 2.5 μM
  cell death: no effect
2LMP cells [7]; Mcl-1 knock-down
  cell death induction upon knock-down of Mcl-1: sensitizes
PC-3 cells [8]; Mcl-1 knock-down
  cell death induction upon knock-down of Mcl-1: sensitizes
2LMP cells [9]; Homo sapiens, 96 h
  IC50: > 10 µM
PC-3 cells [10]; Homo sapiens, PC-3, 96 h
  IC50: > 10 µM
